Test results published in patent US10597388B2, “Pyridazinone herbicides” (FMC CORPORATION, priority 2014, dated 2020).

What was measured:
Test in all cases: Test C greenhouse herbicide test, pre- and postemergence
Format in all cases: in vivo
[1] = system: velvetleaf (Abutilon theophrasti)
Outline: (§1)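 Seeds sown in loam–sand blend treated preemergence; plants in peat-based medium sprayed postemergence at 2–18 cm (1- to 4-leaf stage); chemicals in non-phytotoxic solvent with surfactant. Greenhouse 13–15 d, then visual rating versus controls on 0–100 scale (0 no effect, 100 complete control).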

[2] = system: ragweed (common ragweed, Ambrosia elatior)
Outline: as §1

[3] = system: nutsedge, yellow (yellow nutsedge, Cyperus esculentus)
Outline: as §1

[4] = system: barnyardgrass (Echinochloa crus-galli)
Outline: as §1

[5] = system: crabgrass, large (large crabgrass, Digitaria sanguinalis)
Outline: as §1

[6] = system: lambsquarters (Chenopodium album)
Outline: as §1

[7] = system: wheat (winter wheat, Triticum aestivum)
Outline: as §1

[8] = system: galium (catchweed bedstraw, Galium aparine)
Outline: as §1

[9] = system: ryegrass, Italian (Italian ryegrass, Lolium multiflorum)
Outline: as §1

[10] = system: blackgrass (Alopecurus myosuroides)
Outline: as §1

[11] = system: pigweed (Amaranthus retroflexus)
Outline: as §1

soybean (Glycine max) = system: soybean (Glycine max)
Outline: as §1

corn (Zea mays) = system: corn (Zea mays)
Outline: as §1

[12] = system: foxtail, giant (giant foxtail, Setaria faberii)
Outline: as §1

[13] = system: oilseed rape (Brassica napus)
Outline: as §1

[14] = Postemergence, 31 g ai/ha, 0 to 100 scale (0 no effect, 100 complete control)
[15] = Postemergence, 125 g ai/ha, scale 0 to 100, 0 is no effect, 100 is complete control
[16] = Postemergence, 250 g ai/ha, scale 0 to 100, 0 no effect, 100 complete control, 13 to 15 d
[17] = Preemergence, 62 g ai/ha, scale 0 to 100, 0 is no effect, 100 is complete control
[18] = Preemergence, 125 g ai/ha, scale 0 to 100, 0 is no effect, 100 is complete control
[19] = Preemergence, 250 g ai/ha, scale 0 to 100, 0 no effect, 100 complete control
[20] = postemergence, 62 g ai/ha, scale 0 to 100, 0 no effect, 100 complete control
[21] = Preemergence, 31 g ai/ha, scale 0 to 100, 0 is no effect, 100 is complete control

For Cc1ccc2ccccc2c1-c1c(O)c(Br)nn(C)c1=O [Compound 23], the “Velvetleaf plant response rating” value [1, 14] was 70, the “Plant response rating, Velvetleaf” value [1, 15] was 85 and the “Plant response rating, Velvetleaf” value [1, 16] was 90. For the same molecule, the “Plant response rating, Velvetleaf” value [1, 17] was 90, the “Plant response rating, Velvetleaf” value [1, 18] was 100 and the “Velvetleaf plant response rating” value [1, 19] was 100. For the same molecule, the “Velvetleaf plant response rating” value [1, 20] was 85, the “Ragweed plant response rating” value [2, 14] was 85 and the “Plant response rating, Ragweed” value [2, 15] was 95. For the same molecule, the “Plant response rating, Ragweed” value [2, 16] was 98, the “Plant response rating, Ragweed” value [2, 21] was 85 and the “Plant response rating, Ragweed” value [2, 17] was 85. The “Plant response rating, Ragweed” value [2, 18] was 95, the “Ragweed plant response rating” value [2, 19] was 90 and the “Ragweed plant response rating” value [2, 20] was 90. The “Nutsedge, Yellow plant response rating” value [3, 14] was 60, the “Plant response rating, Nutsedge, Yellow” value [3, 15] was 85 and the “Plant response rating, Nutsedge, Yellow” value [3, 16] was 85. The “Plant response rating, Nutsedge, Yellow” value [3, 21] was 40, the “Plant response rating, Nutsedge, Yellow” value [3, 17] was 90 and the “Plant response rating, Nutsedge, Yellow” value [3, 18] was 85. For the same molecule, the “Nutsedge, Yellow plant response rating” value [3, 19] was 90, the “Nutsedge, Yellow plant response rating” value [3, 20] was 70 and the “Barnyardgrass plant response rating” value [4, 14] was 40. For the same molecule, the “Plant response rating, Barnyardgrass” value [4, 15] was 75, the “Plant response rating, Barnyardgrass” value [4, 16] was 85 and the “Plant response rating, Barnyardgrass” value [4, 21] was 10. The “Plant response rating, Barnyardgrass” value [4, 17] was 85, the “Plant response rating, Barnyardgrass” value [4, 18] was 85 and the “Barnyardgrass plant response rating” value [4, 19] was 85. The “Barnyardgrass plant response rating” value [4, 20] was 60, the “Crabgrass, Large plant response rating” value [5, 14] was 5 and the “Plant response rating, Crabgrass, Large” value [5, 15] was 35. The “Plant response rating, Crabgrass, Large” value [5, 16] was 45, the “Plant response rating, Crabgrass, Large” value [5, 21] was 5 and the “Plant response rating, Crabgrass, Large” value [5, 17] was 45. The “Plant response rating, Crabgrass, Large” value [5, 18] was 75, the “Crabgrass, Large plant response rating” value [5, 19] was 95 and the “Crabgrass, Large plant response rating” value [5, 20] was 20. For the same molecule, the “Lambsquarters plant response rating” value [6, 14] was 85, the “Plant response rating, Lambsquarters” value [6, 15] was 95 and the “Plant response rating, Lambsquarters” value [6, 16] was 98. For the same molecule, the “Plant response rating, Lambsquarters” value [6, 21] was 85, the “Plant response rating, Lambsquarters” value [6, 17] was 85 and the “Plant response rating, Lambsquarters” value [6, 18] was 95. For the same molecule, the “Lambsquarters plant response rating” value [6, 19] was 95, the “Lambsquarters plant response rating” value [6, 20] was 95 and the “Wheat plant response rating” value [7, 14] was 10. The “Plant response rating, Wheat” value [7, 15] was 35, the “Plant response rating, Wheat” value [7, 16] was 30 and the “Plant response rating, Wheat” value [7, 17] was 85. The “Plant response rating, Wheat” value [7, 18] was 90, the “Wheat plant response rating” value [7, 19] was 90 and the “Wheat plant response rating” value [7, 20] was 30. For the same molecule, the “Galium plant response rating” value [8, 14] was 95, the “Plant response rating, Galium” value [8, 15] was 100 and the “Plant response rating, Galium” value [8, 16] was 100. The “Plant response rating, Galium” value [8, 21] was 98, the “Plant response rating, Galium” value [8, 17] was 100 and the “Plant response rating, Galium” value [8, 18] was 100. For the same molecule, the “Galium plant response rating” value [8, 19] was 100, the “Galium plant response rating” value [8, 20] was 100 and the “Ryegrass, Italian plant response rating” value [9, 14] was 85. The “Plant response rating, Ryegrass, Italian” value [9, 15] was 95, the “Plant response rating, Ryegrass, Italian” value [9, 16] was 95 and the “Plant response rating, Ryegrass, Italian” value [9, 21] was 85. For the same molecule, the “Plant response rating, Ryegrass, Italian” value [9, 17] was 90, the “Plant response rating, Ryegrass, Italian” value [9, 18] was 95 and the “Ryegrass, Italian plant response rating” value [9, 19] was 95. For the same molecule, the “Ryegrass, Italian plant response rating” value [9, 20] was 90, the “Blackgrass plant response rating” value [10, 14] was 50 and the “Plant response rating, Blackgrass” value [10, 15] was 70. The “Plant response rating, Blackgrass” value [10, 16] was 85, the “Plant response rating, Blackgrass” value [10, 21] was 45 and the “Plant response rating, Blackgrass” value [10, 17] was 85. For the same molecule, the “Plant response rating, Blackgrass” value [10, 18] was 90, the “Blackgrass plant response rating” value [10, 19] was 90 and the “Blackgrass plant response rating” value [10, 20] was 60. For the same molecule, the “Pigweed plant response rating” value [11, 14] was 90, the “Plant response rating, Pigweed” value [11, 15] was 98 and the “Plant response rating, Pigweed” value [11, 16] was 98. For the same molecule, the “Plant response rating, Pigweed” value [11, 21] was 100, the “Plant response rating, Pigweed” value [11, 17] was 100 and the “Plant response rating, Pigweed” value [11, 18] was 100. For the same molecule, the “Pigweed plant response rating” value [11, 19] was 100, the “Pigweed plant response rating” value [11, 20] was 98 and the “Soybean plant response rating” value (soybean (Glycine max); [14]) was 5. The “Plant response rating, Soybean” value (soybean (Glycine max); [15]) was 10, the “Plant response rating, Soybean” value (soybean (Glycine max); [16]) was 15 and the “Plant response rating, Soybean” value (soybean (Glycine max); [17]) was 0. The “Plant response rating, Soybean” value (soybean (Glycine max); [18]) was 5, the “Soybean plant response rating” value (soybean (Glycine max); [19]) was 55 and the “Soybean plant response rating” value (soybean (Glycine max); [20]) was 10. The “Corn plant response rating” value (corn (Zea mays); [14]) was 10, the “Plant response rating, Corn” value (corn (Zea mays); [15]) was 10 and the “Plant response rating, Corn” value (corn (Zea mays); [16]) was 25. For the same molecule, the “Plant response rating, Corn” value (corn (Zea mays); [21]) was 0, the “Plant response rating, Corn” value (corn (Zea mays); [17]) was 0 and the “Plant response rating, Corn” value (corn (Zea mays); [18]) was 30. The “Corn plant response rating” value (corn (Zea mays); [19]) was 65, the “Corn plant response rating” value (corn (Zea mays); [20]) was 30 and the “Foxtail, Giant plant response rating” value [12, 14] was 30. The “Plant response rating, Foxtail, Giant” value [12, 15] was 85, the “Plant response rating, Foxtail, Giant” value [12, 16] was 90 and the “Plant response rating, Foxtail, Giant” value [12, 21] was 30. For the same molecule, the “Plant response rating, Foxtail, Giant” value [12, 17] was 85, the “Plant response rating, Foxtail, Giant” value [12, 18] was 85 and the “Foxtail, Giant plant response rating” value [12, 19] was 100. For the same molecule, the “Foxtail, Giant plant response rating” value [12, 20] was 65, the “Oilseed Rape plant response rating” value [13, 14] was 5 and the “Plant response rating, Oilseed Rape” value [13, 15] was 45. For the same molecule, the “Plant response rating, Oilseed Rape” value [13, 16] was 10, the “Plant response rating, Oilseed Rape” value [13, 21] was 50 and the “Plant response rating, Oilseed Rape” value [13, 17] was 90. For the same molecule, the “Plant response rating, Oilseed Rape” value [13, 18] was 90, the “Oilseed Rape plant response rating” value [13, 19] was 100 and the “Oilseed Rape plant response rating” value [13, 20] was 15.

For Cc1ccc2sc(C)c(-c3c(OC(=O)C(C)(C)C)c(C)nn(C)c3=O)c2c1 [Compound 26], the “Velvetleaf plant response rating” value [1, 14] was 5, the “Plant response rating, Velvetleaf” value [1, 15] was 60 and the “Plant response rating, Velvetleaf” value [1, 16] was 70. For the same molecule, the “Velvetleaf plant response rating” value [1, 20] was 30, the “Ragweed plant response rating” value [2, 14] was 15 and the “Plant response rating, Ragweed” value [2, 15] was 85. For the same molecule, the “Plant response rating, Ragweed” value [2, 16] was 90, the “Ragweed plant response rating” value [2, 20] was 70 and the “Nutsedge, Yellow plant response rating” value [3, 14] was 5. The “Plant response rating, Nutsedge, Yellow” value [3, 15] was 20, the “Plant response rating, Nutsedge, Yellow” value [3, 16] was 25 and the “Nutsedge, Yellow plant response rating” value [3, 20] was 10. For the same molecule, the “Barnyardgrass plant response rating” value [4, 14] was 20, the “Plant response rating, Barnyardgrass” value [4, 15] was 30 and the “Plant response rating, Barnyardgrass” value [4, 16] was 35. The “Barnyardgrass plant response rating” value [4, 20] was 25, the “Crabgrass, Large plant response rating” value [5, 14] was 5 and the “Plant response rating, Crabgrass, Large” value [5, 15] was 20. The “Plant response rating, Crabgrass, Large” value [5, 16] was 25, the “Crabgrass, Large plant response rating” value [5, 20] was 20 and the “Lambsquarters plant response rating” value [6, 14] was 75. The “Plant response rating, Lambsquarters” value [6, 15] was 90, the “Plant response rating, Lambsquarters” value [6, 16] was 98 and the “Lambsquarters plant response rating” value [6, 20] was 85. The “Wheat plant response rating” value [7, 14] was 0, the “Plant response rating, Wheat” value [7, 15] was 0 and the “Plant response rating, Wheat” value [7, 16] was 5. The “Wheat plant response rating” value [7, 20] was 0, the “Galium plant response rating” value [8, 14] was 90 and the “Plant response rating, Galium” value [8, 15] was 95. For the same molecule, the “Plant response rating, Galium” value [8, 16] was 95, the “Galium plant response rating” value [8, 20] was 95 and the “Ryegrass, Italian plant response rating” value [9, 14] was 85. For the same molecule, the “Plant response rating, Ryegrass, Italian” value [9, 15] was 90, the “Plant response rating, Ryegrass, Italian” value [9, 16] was 90 and the “Ryegrass, Italian plant response rating” value [9, 20] was 90. The “Blackgrass plant response rating” value [10, 14] was 50, the “Plant response rating, Blackgrass” value [10, 15] was 60 and the “Plant response rating, Blackgrass” value [10, 16] was 75. The “Blackgrass plant response rating” value [10, 20] was 55, the “Pigweed plant response rating” value [11, 14] was 75 and the “Plant response rating, Pigweed” value [11, 15] was 98. For the same molecule, the “Plant response rating, Pigweed” value [11, 16] was 95, the “Pigweed plant response rating” value [11, 20] was 85 and the “Soybean plant response rating” value (soybean (Glycine max); [14]) was 5. The “Plant response rating, Soybean” value (soybean (Glycine max); [15]) was 10, the “Plant response rating, Soybean” value (soybean (Glycine max); [16]) was 10 and the “Soybean plant response rating” value (soybean (Glycine max); [20]) was 5. The “Corn plant response rating” value (corn (Zea mays); [14]) was 0, the “Plant response rating, Corn” value (corn (Zea mays); [15]) was 5 and the “Plant response rating, Corn” value (corn (Zea mays); [16]) was 5. The “Corn plant response rating” value (corn (Zea mays); [20]) was 10, the “Foxtail, Giant plant response rating” value [12, 14] was 15 and the “Plant response rating, Foxtail, Giant” value [12, 15] was 40. The “Plant response rating, Foxtail, Giant” value [12, 16] was 65, the “Foxtail, Giant plant response rating” value [12, 20] was 25 and the “Oilseed Rape plant response rating” value [13, 14] was 0. The “Plant response rating, Oilseed Rape” value [13, 15] was 5, the “Plant response rating, Oilseed Rape” value [13, 16] was 5 and the “Oilseed Rape plant response rating” value [13, 20] was 0.
